Test results taken from US10149907B2, “Combinations of a photosensitizer with a hydrogen sulfide donor, thioredoxin inhibitor or nitroxide for use in photodynamic therapy” (UNIVERSITY OF EXETER, priority 2014, dated 2018).
“Also recorded” adds a separate entry of the source. Where two headings read alike, the source gives them in different places.

Assays:
A431 cells [1] = tested on: A431 cells
Method: A431 cells were seeded at a density of 1×10^5 cells/ml in 96 well plates and incubated under 2% O2 for 48 h prior to treatment. After 24 h, the culture medium was replaced and the cells were placed back into the incubators under 2% O2. Following this incubation period, the culture medium was then removed and the plates were washed with PBS. The cells were then treated with 1 mM MAL in the absence or presence of one of the compounds of interest and then incubated again at 2% O2 for 3 h. For experiments carried out with SRHDs, this treatment step was carried out for 5 h at 2% O2. After treatment, the cells were washed with PBS, the culture medium was replaced and the cells were placed back under 2% O2 for 3 h. Following this final incubation, cell death was analysed using the resazurin viability assay.
Resazurin (7-hydroxy-3H-phenoxazin-3-one 0-oxide) is a weakly fluorescent blue dye used primarily in oxidation-reduction cell viability assays. Irreversible NADH-dependent reduction by the mitochondria in mammalian cells leads to the production of resorufin, a highly fluorescent product with excitation at 571 nm, emission at 585 nm.
A431 cells were seeded into 96 well plates at a density of 1.5*10^6 cells per ml (200 μl per well, 3*10^5 cells) and incubated for 24 h to adhere. Following incubation, the cells were washed and treated with the compound of interest for the relevant time, and then washed with PBS. […] After a 2 h incubation, the fluorescence of each well was measured (excitation: 571 nm, emission: 585 nm) using a fluorescence plate reader. Data from these experiments was plotted as a percentage of cell viability compared to untreated control cells.

A431 cells [2] = experiment: cells; type: cell-based; details: for effect on photodynamic cell killing compared to MAL and irradiation only / modes of cell death (early apoptosis, late apoptosis, necrosis): 1 mM MAL + SRHD 1 μM + irradiation; for modes of cell death (early apoptosis, late apoptosis, necrosis): compared to MAL and irradiation, FIG. 2, 4
Method: A431 cells (human epithelial squamous cell carcinoma cells) were seeded at a density of 1×10^6 cells/ml in T12.5 cm^2 flasks and incubated under 2% O2 for 48 h prior to treatment. After 24 h, the culture medium was replaced and the cells were placed back into the incubators under 2% O2. Following this incubation period, the culture medium was then removed and the flasks were washed with PBS. The cells were then treated with one of the SRHDs and incubated at 2% O2 for 2 h, after which MAL was added to a final concentration of 1 mM and the cells were incubated at 2% O2 for 3 h. This meant in total, the cells were treated with the SRHDs for 5 h.
Following this final incubation, cell death was analysed by annexin V-FITC and propidium iodide staining in conjunction with flow cytometry.
(§1) Cell death analysis by flow cytometry was carried out using the annexin V-FITC/propidium iodide protocol. This protocol allows a quantitative assessment of cell death, particularly specific modes of death, and involves staining the cells with fluorescein isothiocyanate-conjugated annexin A5 (annexin V-FITC) and propidium iodide (PI). Positive staining with annexin V-FITC alone indicates an apoptotic cell; positive staining with PI alone indicates a necrotic cell and dual staining of both annexin V and PI indicates a “late apoptotic” cell.
From each flask being assessed, the old medium was removed and placed into a corresponding individual 15 ml Falcon tube in order to collect any cells that may have detached from the surface. The flask was washed once with 1 ml PBS; also deposited in the Falcon tubes. Trypsin (500 μl) was added to each flask and the flasks were returned to the incubator with their caps loosened. Cell detachment was monitored using an inverted light microscope, until 50% of the cells were detached. The flasks were then lightly tapped to detach the remainder of the cells. Medium (2 ml) was added to each flask in order to neutralise the trypsin present before being removed and dispensed into the Falcon tubes. One more wash with PBS was carried out in order to ensure any cells left in the flasks were collected. The Falcon tubes were then centrifuged at 490 g for 3 min, forming a pellet at the bottom of the tube. The supernatant was discarded, and the cells were re-suspended in 5 ml of PBS, in order to wash them, before being centrifuged again at 490 g for 3 min. […] The Falcon tubes were placed on ice and in the dark for 15 min to allow annexin V staining. […] The samples were then ready to be assessed by flow cytometry.
(§2) The following flow cytometry process of sample detection was used. When using annexin V-FITC and PI, the detectors being used were FL1 (λmax=520 nm) and FL3 (λmax=670 nm), respectively, each with their own logarithmic histogram generated by the software. The intensity of the fluorescence detected is measured on a logarithmic scale on the x-axis and the y-axis represents the number of cells detected at a given fluorescence intensity. A plot of FL1/FL3 produces a 4-quadrant graph, where unstained and untreated cells are located in the bottom left quadrant, representing any cells found in the 1st decade of the single plot logarithmic histograms. Single staining with annexin V-FITC and PI are located in the bottom right and top left quadrant, respectively, and dual staining is located in the top right quadrant. These quadrants represent any cells detected above the 1st decade of the logarithmic histograms.

A431 cells [3] = experiment: Photodynamic cell killing in the presence of inhibitors of the thioredoxin antioxidant system or nitroxides (annexin V-FITC/propidium iodide flow cytometry); type: cell-based, human; details: for cell death: 3 h, irradiation
Method: After this treatment, the cells were irradiated for 5 min (630 nm, 25 J/cm^2), then washed with PBS and the culture medium was replaced, after which the cells were placed back under 2% O2 and incubated for a further 3 h. Following this final incubation, cell death was analysed by annexin V-FITC and propidium iodide staining in conjunction with flow cytometry.
as §1
From each flask being assessed, the old medium was removed and placed into a corresponding individual 15 ml Falcon tube in order to collect any cells that may have detached from the surface. The flask was washed once with 1 ml PBS; also deposited in the Falcon tubes. Trypsin (500 μl) was added to each flask and the flasks were returned to the incubator with their caps loosened. Cell detachment was monitored using an inverted light microscope, until 50% of the cells were detached. The flasks were then lightly tapped to detach the remainder of the cells. Medium (2 ml) was added to each flask in order to neutralise the trypsin present before being removed and dispensed into the Falcon tubes. One more wash with PBS was carried out in order to ensure any cells left in the flasks were collected. The Falcon tubes were then centrifuged at 490 g for 3 min, forming a pellet at the bottom of the tube. The supernatant was discarded, and the cells were re-suspended in 5 ml of PBS, in order to wash them, before being centrifuged again at 490 g for 3 min. The wash stage was carried out once more before re-suspending the cell pellet in 95 μl of ice cold calcium (Ca^2+) buffer (50 mM HEPES, 700 mM NaCl, 12.5 mM CaCl2, pH 7.4) and adding 5 μl 12.5 μg/ml of annexin V-FITC (final concentration, 1.25 μg/ml), under reduced light conditions to prevent bleaching of the FITC. The Falcon tubes were placed on ice and in the dark for 15 min to allow annexin V staining. After 15 min, 860 μl of Ca^2+ buffer (10 mM Hepes adjusted to pH 7.4, 140 mM NaCl and 2.5 mM CaCl2) was added, followed by 40 μl of 1 mg/ml PI in water (final concentration, 0.04 mg/ml) to give a final volume of 1 ml. The samples were then ready to be assessed by flow cytometry.
as §2

A431 cells [4] = experiment: Mitochondrial reactive oxygen species generation during photodynamic irradiation, MitoSOX flow cytometry; type: cell-based, human; details: 3 hours, irradiated
Method: A431 cells were treated concurrently with AP39-C10 (10, 100 or 1000 nM) for 5 hours, MAL (1 mM) for 3 hours and MitoSOX (2.5 μM) for 1 hour, after which they were irradiated for 5 min (630 nm, 25 J/cm^2) and MitoSOX (mito-2-OH-E^+) fluorescence, indicative of mitochondrial oxidant production, was immediately analysed by flow cytometry. Results are set out in FIG. 23.
Mitochondria-targeted dihydroethidium (i.e. MitoSOX) was used to assess the production of mitochondrial reactive oxygen species (ROS) by PpIX photochemical reactions and to determine the effects of AP39-C10 on this process. All of the results are represented as a percentage of the untreated controls (100.0±8.5%). The fluorescence of the photoirradiated cells, which had been pre-treated with MAL, was 193.7±7.3% (p<0.001 c.f. untreated controls).

A431 cells [5] = experiment: MAL-induced PpIX accumulation, fluorescence plate reader; type: cell-based, human; details: 3 hours, FIG. 38
[6] = 1 mM MAL + SRHD 1 μM (5 h) + irradiation, 3 h post-irradiation
[7] = dark toxicity, without irradiation, SRHD 1 μM, 5 h, FIG. 1, 3

Row | Compound | cell viability, percentage of untreated control (A431 cells [1]; 500 μM, 5 hours, FIG. 15, 16) [%] | cell death (A431 cells [2]; [6]) [%] | cell death (A431 cells [2]; [7]) [%] | potentiating effect on MAL photodynamic cell killing (A431 cells [3]; summary of Examples 2A, 3A) | modes of cell death (early apoptosis, late apoptosis, necrosis) (A431 cells [2]) | other results
1 | O=C(CCCCCCCCCCC[P+](c1ccccc1)(c1ccccc1)c1ccccc1)Oc1ccc(-c2cc(=S)ss2)cc1 [AP39-C12] | 13.3±1.8 | 51.6±3.2 | 11.7±1.5 |  |  | 
2 | CCC(C)SSc1ncc[nH]1 (stereo not drawn) [PX12, 2-[(1-Methylpropyl)dithio]-1H-imidazole] |  |  |  | more robust potentiating effect |  | cell death (A431 cells [3]; 1 mM MAL + co-treatment 10 μM): 70.5±4.5%; cell viability, percentage of untreated control (A431 cells [1]; 500 μM, 24 hours): 47.5±4.9%; concentration up to which well tolerated / no cytotoxicity (A431 cells [1]; 24 hours): ≤ 100 µM; MitoSOX fluorescence, percentage of untreated cells (A431 cells [4]; MAL 1 mM + co-treatment 10 μM): 211.4±17.6%
3 | O=C(CCCCCCC[P+](c1ccccc1)(c1ccccc1)c1ccccc1)Oc1ccc(-c2cc(=S)ss2)cc1 [AP39-C8] | 20.1±4.5 | 46.3±2.1 | 14.9±2.3 |  |  | 
4 | NC(=S)c1ccc(OC(=O)CCCCCCC[P+](c2ccccc2)(c2ccccc2)c2ccccc2)cc1 [AP123-C8] | 13.2±1.8 | 67.5±6.4 | 13.2±3.1 |  |  | 
5 | CC1(C)CC(=O)CC(C)(C)N1[O] [TEMPONE] |  |  |  | mild potentiating effect |  | PpIX accumulation, percentage of the MAL alone treatment (A431 cells [5]; 10 μM + MAL 1 mM): 100.3±4.0%; PpIX accumulation, percentage of the MAL alone treatment (A431 cells [5]; 100 μM + MAL 1 mM): 123.8±2.5%; PpIX accumulation, percentage of the MAL alone treatment (A431 cells [5]; 1000 μM + MAL 1 mM): 160.2±3.2%; cell death (A431 cells [3]; 1 mM MAL + co-treatment 1 mM (1000 μM)): 37.9±2.3%; modes of cell death (A431 cells [3]; 1 mM MAL + nitroxide 1 mM (MitoTEMPO 50 μM) + irradiation, FIG. 13, 34): a further increase in late apoptosis and necrosis with little effect on apoptotic cell death; cell viability, percentage of untreated control (A431 cells [1]; 10 mM, 24 hours): 80.3±13.3%; cell viability, percentage of untreated control (A431 cells [1]; 50 mM, 24 hours): 53.7±13.3%; MitoSOX fluorescence, percentage of untreated cells (A431 cells [4]; MAL 1 mM + co-treatment 1 mM (1000 μM)): 226.4±6.8%
6 | CC[PH](CC)(CC)[Au][S][C@@H]1O[C@H](COC(C)=O)[C@@H](OC(C)=O)[C@H](OC(C)=O)[C@H]1OC(C)=O [auranofin] |  |  |  |  |  | modes of cell death (A431 cells [3]): primarily increased necrotic cell death; also recorded: slightly increased late apoptotic cell death; also recorded: concentration-dependent increases in late apoptosis and necrosis, with little effect on early apoptosis; potentiating effect on MAL photodynamic cell killing (A431 cells [3]): more robust potentiating effect; concentration up to which well tolerated / no cytotoxicity (A431 cells [1]; human): ≤ 10 µM
7 | Oc1ccc(-c2cc(=S)ss2)cc1 [ADT-OH, 5-(4-hydroxyphenyl)-3H-1,2-dithiole-3-thione] | 76.7±1.3 | 25.7±6 |  |  | no effect on the types of cell death observed compared to treatment with MAL and irradiation | effect on photodynamic cell killing compared to MAL and irradiation only (A431 cells [2]): no statistically significant effect on photodynamic cell killing
8 | aurothiomalate [ATM] |  |  |  | more robust potentiating effect |  | cell death (A431 cells [3]; 1 mM MAL + co-treatment 20 μM): 66.7±4.9%; tolerance (dark toxicity) (A431 cells [1]; 0.1-500 μM, 24 hours): well tolerated at all concentrations tested; MitoSOX fluorescence, percentage of untreated cells (A431 cells [4]; MAL 1 mM + co-treatment 20 μM): 192.4±5.6%
9 | NC(=S)c1ccc(OC(=O)CCCCCCCCCCC[P+](c2ccccc2)(c2ccccc2)c2ccccc2)cc1 [AP123-C12] | 17.0±0.7 | 72.5±2.0 | 12.7±3.0 |  | less effect on early apoptosis, instead increasing late apoptosis and necrosis | 
10 | NC(=S)c1ccc(O)cc1 [4-HTB, 4-hydroxythiobenzamide] |  | 22.5±5.5 |  |  | no effect on the types of cell death observed compared to treatment with MAL and irradiation | concentration up to which treatment was well tolerated (A431 cells [1]; 5 hours, range 0.1-500 μM): up to 500 μM; effect on photodynamic cell killing compared to MAL and irradiation only (A431 cells [2]): no statistically significant effect on photodynamic cell killing
